pIC50: −log10 of the molar value.
target: T1, human TRPM8 (Homo sapiens, UniProt Q7Z2W7); test: Luminescence readout assay for measuring intracellular calcium, icilin activation; type: cell-based; details: CHO cells expressing human TRPM8, aequorin luminescence, 1 μM icilin activation; read-out: hTRPM8 IC50
T1 construct: expressed in transfected cells; host or cells: Chinese hamster ovary (CHO) cells, T-REx tetracycline-inducible system, co-transfected with aequorin
Summary of the method: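 The read-out was luminescence reporting intracellular calcium, recorded by a CCD-based luminometer. Compounds were preincubated for 2.5 min before agonist challenge with 1 μM icilin. Human TRPM8 was expressed in a stable T-REx CHO line, induced with 0.5 μg/mL tetracycline the day before.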

T1 sequence (Q7Z2W7 whole entry): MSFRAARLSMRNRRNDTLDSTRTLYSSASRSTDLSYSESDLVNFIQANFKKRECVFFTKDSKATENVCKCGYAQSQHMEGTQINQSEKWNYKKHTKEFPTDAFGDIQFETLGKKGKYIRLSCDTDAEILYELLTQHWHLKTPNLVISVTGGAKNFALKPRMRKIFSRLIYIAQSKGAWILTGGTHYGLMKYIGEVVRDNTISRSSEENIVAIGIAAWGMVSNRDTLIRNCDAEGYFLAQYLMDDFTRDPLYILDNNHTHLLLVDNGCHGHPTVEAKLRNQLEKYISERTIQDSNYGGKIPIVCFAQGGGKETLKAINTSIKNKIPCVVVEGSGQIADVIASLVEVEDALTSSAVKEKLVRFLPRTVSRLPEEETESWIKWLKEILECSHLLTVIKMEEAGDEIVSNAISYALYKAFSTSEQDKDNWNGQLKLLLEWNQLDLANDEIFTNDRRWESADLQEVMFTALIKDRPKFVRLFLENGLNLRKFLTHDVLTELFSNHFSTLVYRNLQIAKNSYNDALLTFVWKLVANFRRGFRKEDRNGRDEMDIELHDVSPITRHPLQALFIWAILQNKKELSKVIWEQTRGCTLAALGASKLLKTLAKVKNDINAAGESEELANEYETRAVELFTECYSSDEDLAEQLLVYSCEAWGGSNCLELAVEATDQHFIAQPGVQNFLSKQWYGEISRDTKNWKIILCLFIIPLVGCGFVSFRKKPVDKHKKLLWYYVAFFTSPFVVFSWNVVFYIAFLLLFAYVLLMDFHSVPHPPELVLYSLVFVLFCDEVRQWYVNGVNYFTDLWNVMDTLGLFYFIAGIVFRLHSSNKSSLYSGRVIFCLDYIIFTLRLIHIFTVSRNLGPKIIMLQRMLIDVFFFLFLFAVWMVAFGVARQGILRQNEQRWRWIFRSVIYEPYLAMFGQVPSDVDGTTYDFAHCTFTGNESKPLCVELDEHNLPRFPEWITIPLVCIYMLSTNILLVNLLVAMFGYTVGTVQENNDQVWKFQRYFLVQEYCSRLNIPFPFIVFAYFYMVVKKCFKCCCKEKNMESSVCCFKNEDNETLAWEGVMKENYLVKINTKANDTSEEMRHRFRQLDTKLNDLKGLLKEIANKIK

| Structure (SMILES) | pIC50 |
| --- | --- |
| O=C(N[C@@H](c1ccc(C(F)(F)F)c(F)c1)c1ncccc1C(F)(F)F)[C@@H]1CCCO1 [Example 119, (S)-N-((S)-(3-fluoro-4-(trifluoromethyl)phenyl)(3-(trifluoromethyl)pyridin-2-yl)methyl)THF-2-carboxamide] | 7.00 |
| O=C(N[C@@H](c1ccc(C(F)(F)F)cc1)c1ncccc1F)c1ccc2c(Cl)ccnc2c1 [Example 120, (S)-4-chloro-N-((3-fluoropyridin-2-yl)(4-(trifluoromethyl)phenyl)methyl)quinoline-7-carboxamide 2,2,2-trifluoroacetate] | 7.23 |
| O=C(N[C@@H](c1ccc(C(F)(F)F)cc1)c1ncccc1C(F)(F)F)c1ccc(I)cc1 [Example 122, (S)-4-iodo-N-((4-(trifluoromethyl)phenyl)(3-(trifluoromethyl)pyridin-2-yl)methyl)benzamide] | 6.97 |
| O=C(N[C@@H](c1ccc(C(F)(F)F)cc1)c1ncccc1F)c1ccc2ccc(=O)[nH]c2c1 [Example 125, (S)-N-((3-fluoropyridin-2-yl)(4-(trifluoromethyl)phenyl)methyl)-2-oxo-1,2-dihydroquinoline-7-carboxamide] | 6.75 |
| O=C(N[C@@H](c1ccc(C(F)(F)F)c(F)c1)c1ncccc1C(F)(F)F)c1ccc2ncccc2c1 [Example 130, (S)-N-((3-fluoro-4-(trifluoromethyl)phenyl)(3-(trifluoromethyl)pyridin-2-yl)methyl)quinoline-6-carboxamide bis (2,2,2-trifluoroacetate)] | 7.61 |
| Nc1ccc(C(=O)N[C@@H](c2ccc(C(F)(F)F)cc2)c2ncccc2C(F)(F)F)cn1 [Example 134, (S)-6-amino-N-((4-(trifluoromethyl)phenyl)(3-(trifluoromethyl)pyridin-2-yl)methyl)nicotinamide] | 7.51 |
| O=C(N[C@@H](c1ccc(C(F)(F)F)cc1)c1ncccc1C(F)(F)F)c1ccc(Cl)nc1 [Example 135, (S)-6-chloro-N-((4-(trifluoromethyl)phenyl)(3-(trifluoromethyl)pyridin-2-yl)methyl)nicotinamide] | 7.71 |
| Cc1ncc(C(=O)N[C@@H](c2ccc(C(F)(F)F)cc2)c2ncccc2C(F)(F)F)c(N)n1 [Example 137, (S)-4-amino-2-methyl-N-((4-(trifluoromethyl)phenyl)(3-(trifluoromethyl)pyridin-2-yl)methyl)pyrimidine-5-carboxamide] | 7.02 |
| Nc1cnccc1C(=O)N[C@@H](c1ccc(C(F)(F)F)cc1)c1ncccc1C(F)(F)F [Example 139, (S)-3-amino-N-((4-(trifluoromethyl)phenyl)(3-(trifluoromethyl)pyridin-2-yl)methyl)isonicotinamide] | 7.18 |
| COC(=O)c1ccc(C(=O)N[C@@H](c2ccc(C(F)(F)F)cc2)c2ncccc2C(F)(F)F)cc1 [Example 140, (S)-methyl 4-(((4-(trifluoromethyl)phenyl)(3-(trifluoro-methyl)pyridin-2-yl)methyl)carbamoyl)benzoate] | 7.28 |
| CC(C)(C)OC(=O)N1CCCC(C(=O)N[C@@H](c2ccc(C(F)(F)F)cc2)c2ncccc2C(F)(F)F)C1 (stereo partly drawn) [Example 142, tert-butyl 3-(((S)-(4-(trifluoromethyl)phenyl)(3-(trifluoromethyl)pyridin-2-yl)methyl)carbamoyl)piperidine-1-carboxylate] | 6.84 |
| O=C(N[C@@H](c1ccc(C(F)(F)F)cc1)c1ncccc1C(F)(F)F)c1cn[nH]c1 [Example 143, (S)-N-((4-(trifluoromethyl)phenyl)(3-(trifluoromethyl)pyridin-2-yl)methyl)-1H-pyrazole-4-carboxamide] | 7.06 |
| Cc1ncsc1CCC(=O)N[C@@H](c1ccc(C(F)(F)F)cc1)c1ncccc1C(F)(F)F [Example 145, (S)-3-(4-methylthiazol-5-yl)-N-((4-(trifluoromethyl)phenyl)(3-(trifluoromethyl)pyridin-2-yl)methyl)propanamide] | 7.07 |
| Cn1ccnc1C(=O)N[C@@H](c1ccc(C(F)(F)F)cc1)c1ncccc1C(F)(F)F [Example 146, (S)-1-methyl-N-((4-(trifluoromethyl)phenyl)(3-(trifluoromethyl)pyridin-2-yl)methyl)-1H-imidazole-2-carboxamide] | 6.74 |
| CC(=O)Nc1ccc(C(=O)N[C@@H](c2ccc(C(F)(F)F)cc2)c2ncccc2C(F)(F)F)cn1 [Example 148, (S)-6-acetamido-N-((4-(trifluoromethyl)phenyl)(3-(trifluoromethyl)pyridin-2-yl)methyl)nicotinamide 2,2,2-trifluoroacetate] | 6.59 |
| Cc1cc(C)n2nc(C(=O)N[C@@H](c3ccc(C(F)(F)F)cc3)c3ncccc3C(F)(F)F)cc2n1 [Example 149, (S)-5,7-dimethyl-N-((4-(trifluoromethyl)phenyl)(3-(trifluoromethyl)pyridin-2-yl)methyl)pyrazolo[1,5-a]pyrimidine-2-carboxamide] | 6.40 |
| O=C(N[C@@H](c1ccc(C(F)(F)F)cc1)c1ncccc1C(F)(F)F)c1ccc(=O)[nH]n1 [Example 150, (S)-6-oxo-N-((4-(trifluoromethyl)phenyl)(3-(trifluoromethyl)pyridin-2-yl)methyl)-1,6-dihydropyridazine-3-carboxamide] | 6.75 |
| O=C(N[C@@H](c1ccc(C(F)(F)F)cc1)c1ncccc1C(F)(F)F)C1CCOCC1 [Example 152, (S)-N-((4-(trifluoromethyl)phenyl)(3-(trifluoromethyl)pyridin-2-yl)methyl)tetrahydro-2H-pyran-4-carboxamide] | 6.34 |

Further lines, results first:

| pIC50 | Structure (SMILES) |
| --- | --- |
| 6.61 | CC(C)(O)c1ccc(C(=O)N[C@@H](c2ccc(C(F)(F)F)cc2)c2ncccc2C(F)(F)F)cc1 [Example 121, (S)-4-(2-hydroxypropan-2-yl)-N-((4-(trifluoromethyl)phenyl)(3-(trifluoromethyl)pyridin-2-yl)methyl)benzamide] |
| 6.83 | O=C(N[C@@H](c1ccc(C(F)(F)F)c(F)c1)c1ncccc1C(F)(F)F)[C@H]1CCCO1 [Example 123, (R)-N-((S)-(3-fluoro-4-(trifluoromethyl)phenyl)(3-(trifluoromethyl)pyridin-2-yl)methyl)THF-2-carboxamide] |
| 6.72 | COc1ccc(C(=O)N[C@@H](c2ccc(F)cc2)c2ncccc2C(F)(F)F)cn1 [Example 124, (S)-N-((4-fluorophenyl)(3-(trifluoromethyl)pyridin-2-yl)methyl)-6-methoxynicotinamide] |
| 6.71 | O=C(N[C@@H](c1ccc(F)cc1)c1ncccc1C(F)(F)F)c1ccccc1 [Example 126, (S)-N-((4-fluorophenyl)(3-(trifluoromethyl)pyridin-2-yl)methyl)benzamide] |
| 6.23 | CC(C)c1ccc(C(=O)N[C@@H](c2ccc(C(F)(F)F)cc2)c2ncccc2C(F)(F)F)cc1 [Example 127, (S)-4-isopropyl-N-((4-(trifluoromethyl)phenyl)(3-(trifluoromethyl)pyridin-2-yl)methyl)benzamide] |
| 6.90 | O=C(N[C@@H](c1ccc(C(F)(F)F)cc1)c1ncccc1C(F)(F)F)c1ccc2cccnc2n1 [Example 128, (S)-N-((4-(trifluoromethyl)phenyl)(3-(trifluoromethyl)pyridin-2-yl)methyl)-1,8-naphthyridine-2-carboxamide 2,2,2-trifluoroacetate] |
| 6.94 | O=C(N[C@@H](c1ccc(C(F)(F)F)c(F)c1)c1ncccc1C(F)(F)F)c1ccc2cccnc2n1 [Example 129, (S)-N-((3-fluoro-4-(trifluoromethyl)phenyl)(3-(trifluoromethyl)pyridin-2-yl)methyl)-1,8-naphthyridine-2-carboxamide 2,2,2-trifluoroacetate] |
| 6.92 | Nc1nc(C(=O)N[C@@H](c2ccc(C(F)(F)F)cc2)c2ncccc2C(F)(F)F)cs1 [Example 136, (S)-2-amino-N-((4-(trifluoromethyl)phenyl)(3-(trifluoromethyl)pyridin-2-yl)methyl)thiazole-4-carboxamide 2,2,2-trifluoroacetate] |
| 7.33 | O=C(N[C@@H](c1ccc(C(F)(F)F)cc1)c1ncccc1C(F)(F)F)c1cccs1 [Example 138, (S)-N-((4-(trifluoromethyl)phenyl)(3-(trifluoromethyl)pyridin-2-yl)methyl)thiophene-2-carboxamide] |
| 6.80 | O=C(N[C@@H](c1ccc(C(F)(F)F)cc1)c1ncccc1C(F)(F)F)c1ccc(-c2nnn[nH]2)cc1 [Example 141, (S)-4-(1H-tetrazol-5-yl)-N-((4-(trifluoromethyl)phenyl)(3-(trifluoromethyl)pyridin-2-yl)methyl)benzamide] |
| 6.70 | Nc1cccnc1C(=O)N[C@@H](c1ccc(C(F)(F)F)cc1)c1ncccc1C(F)(F)F [Example 144, (S)-3-amino-N-((4-(trifluoromethyl)phenyl)(3-(trifluoromethyl)pyridin-2-yl)methyl)picolinamide] |
| 6.83 | O=C(N[C@@H](c1ccc(C(F)(F)F)cc1)c1ncccc1C(F)(F)F)c1cncnc1 [Example 147, (S)-N-((4-(trifluoromethyl)phenyl)(3-(trifluoromethyl)pyridin-2-yl)methyl)pyrimidine-5-carboxamide] |
| 6.40 | Cc1cc(C)n2nc(C(=O)N[C@@H](c3ccc(C(F)(F)F)cc3)c3ncccc3C(F)(F)F)nc2n1 [Example 151, (S)-5,7-dimethyl-N-((4-(trifluoromethyl)phenyl)(3-(trifluoromethyl)pyridin-2-yl)methyl)-[1,2,4]triazolo[1,5-a]pyrimidine-2-carboxamide 2,2,2-trifluoroacetate] |
| 6.43 | Cc1ccnn1CC(=O)N[C@@H](c1ccc(C(F)(F)F)cc1)c1ncccc1C(F)(F)F [Example 153, (S)-2-(5-methyl-1H-pyrazol-1-yl)-N-((4-(trifluoromethyl)phenyl)(3-(trifluoromethyl)pyridin-2-yl)methyl)acetamide] |
